Reference: BigSolDB 2.1

O=[N+]([O-])/N=C1\NCCN1Cc1ccc(Cl)nc1
solubility (mole fraction)
Settings	293.15 K	298.15 K	303.15 K	308.15 K	313.15 K	318.15 K	323.15 K	328.15 K	333.15 K
in ethanol	0.0006	0.0008	0.0009	0.0012	0.0015	0.0019	0.0025	0.003	0.0036
in ethyl acetate	0.0027	0.0029	0.0034	0.0039	0.0044	0.0053	0.0061	0.0071	0.0084
in methanol	0.0012	0.0015	0.0018	0.0023	0.0027	0.0036	0.0044	0.0054	0.0067
in methyl acetate	0.0037	0.0042	0.0048	0.0057	0.0067	0.0078	0.0092	0.0107	–
in n-butanol	0.0004	0.0005	0.0006	0.0008	0.001	0.0013	0.0017	0.0021	0.0026
in n-butyl acetate	0.0015	0.0019	0.0021	0.0027	0.0032	0.0035	0.0037	0.0041	0.0048
in n-propanol	0.0005	0.0006	0.0008	0.0011	0.0013	0.0017	0.0022	0.0028	0.0034
